Experimental data published in PMC6035067 (The Biochemical journal, 2018).
Entries after “also recorded” stand apart in the source; their conditions may differ. Read-outs that look alike come from different tables or passages of the source.

Experiments:
EtCYP112 [1] = target: T1, EtCYP112 (Erwinia tracheiphila, UniProt A0A0M2KIP9); assay: UV-Vis spectral binding titration of EtCYP112; details: for shift of the Soret-band from 419 to 391 nm: upon ligand addition
EtCYP112 [2] = target: T1, EtCYP112; type: biochemical; details: 20 μM substrate, 60 μM NADPH, 12 h at 25 °C
EtCYP112 [3] = target: T1, EtCYP112; details: previously tested as substrates; ref [9]; cited from earlier work
[4] = conversion of EtCYP112 to high-spin state upon ligand addition
[5] = α-band absorption at 570 nm upon ligand addition

SMILES | High Spin State (EtCYP112 [1]; [4]) | α-band Absorbtion (EtCYP112 [1]; [5]) | conversion by EtCYP112 (products observed) (EtCYP112 [2]) | also measured
C=C1C[C@]23C[C@H]1CC[C@H]2[C@]1(C=O)CCC[C@@](C)(C(=O)O)[C@H]1[C@@H]3C(=O)O [GA24] | 80 – 90% | decreased | – | –
C=C1C[C@@]23CC[C@@H]4C(C)(C)CCC[C@@]4(C)[C@@H]2CC[C@@H]1C3 [ent-kaurene] | < 5% | no decrease; also recorded: unchanged | did not serve as substrates | shift of the Soret-band from 419 to 391 nm (EtCYP112 [1]): only induces a small shift
C=C1C[C@@]23CC[C@@H]4[C@](C)(CO)CCC[C@@]4(C)[C@@H]2CC[C@@H]1C3 [ent-kaurenol] | 20 – 30% | decreased | no products were observed | –
C=C1C[C@]23C[C@H]1CC[C@H]2[C@]1(C)CCC[C@@](C)(C(=O)OC)[C@H]1[C@@H]3C(=O)OC [MeGA12] | 50 – 60% | decreased | – | fold higher Kd than free GA12 (EtCYP112 [1]; Kd of MeGA12 relative to GA12): 5 fold; conversion by EtCYP112 (EtCYP112 [3]): converted by EtCYP112 to GA9
C=C1C[C@]23C[C@H]1CC[C@H]2[C@]1(C)CCC[C@@](C)(C(=O)O)[C@H]1[C@@H]3C(=O)O [GA12] | > 90% | decreased | – | –
C=C1C[C@]23C[C@H]1CC[C@H]2[C@]1(C)CCC[C@@](C)(C(=O)O)[C@H]1C[C@@H]3O (single isomer, unassigned) [ent-7α-hydroxy kaurenoic acid] | 50 – 60% | decreased | no products were observed | –
C=C1C[C@@]23CC[C@H]4[C@@](C)(CCC[C@@]4(C)C(=O)OC)[C@@H]2CC[C@@H]1C3 [methyl-ent-kaurenoate] | 10 – 15% | decreased | no products were observed | –
C=C1C[C@]23C[C@H]1CC[C@H]2[C@]1(C)CCC[C@@](C)(C(=O)O)[C@H]1[C@@H]3C=O [GA12-aldehyde] | > 90% | decreased | transformed into two products | –
C=C1C[C@]23C[C@H]1CC[C@H]2[C@]1(CO)CCC[C@@](C)(C(=O)O)[C@H]1[C@@H]3C(=O)O [GA15 (open lactone), GA15] | – | – | – | High Spin State (EtCYP112 [1]): > 90%; α-band Absorbtion (EtCYP112 [1]): decreased
C=C1C[C@]23C[C@H]1CC[C@H]2[C@@]12CCC[C@@](C)(C(=O)OC1)[C@H]2[C@@H]3C(=O)OC [MeGA15] | 80 – 90% | decreased | – | fold more tightly bound than the analogous form of free GA15 (EtCYP112 [1]; MeGA15 (closed δ-lactone) relative to GA15 closed lactone): about 6 fold; conversion by EtCYP112 (EtCYP112 [3]): converted by EtCYP112 to GA9
C=C1C[C@]23C[C@H]1CC[C@H]2[C@@]12CCC[C@@](C)(C(=O)OC1)[C@H]2[C@@H]3C(=O)O [GA15 (closed lactone), GA15] | > 90% | decreased | – | –
C=C1C[C@]23C[C@H]1CC[C@H]2[C@]1(C(=O)O)CCC[C@@](C)(C(=O)O)[C@H]1[C@@H]3C(=O)O [GA25] | 10 – 20% | without any decrease; also recorded: unchanged | – | shift of the Soret-band from 419 to 391 nm (EtCYP112 [1]): 10–20%; conversion by EtCYP112 (EtCYP112 [3]): does not react
C=C1C[C@]23C[C@H]1CC[C@H]2[C@@]12CCC[C@@](C)(C(=O)O1)[C@H]2[C@@H]3C(=O)O [GA9] | < 5% | without any decrease; also recorded: unchanged | – | shift of the Soret-band from 419 to 391 nm (EtCYP112 [1]): ~5%
C=C1C[C@]23C[C@H]1CC[C@H]2[C@]1(C=O)CCC[C@@](C)(C(=O)OC)[C@H]1[C@@H]3C(=O)OC [MeGA24] | 5 – 10% | no decrease; also recorded: unchanged | – | shift of the Soret-band from 419 to 391 nm (EtCYP112 [1]): only induces a partial shift; conversion by EtCYP112 (EtCYP112 [3]): does not react
C=C1C[C@@]23CC[C@H]4[C@@](C)(CCC[C@@]4(C)C(=O)O)[C@@H]2CC[C@@H]1C3 [ent-kaurenoic acid] | 50 – 60% | decreased | no products were observed | –
C=C1C[C@@]23CC[C@H]4[C@@](C)(CCC[C@@]4(C)C=O)[C@@H]2CC[C@@H]1C3 [ent-kaurenal] | 5 – 10% | decreased | no products were observed | –
